Molecules are shown by their SMILES.

We go through two compounds from patent publication US20070117770A1, “Human ribosomal DNA (rDNA) and ribosomal RNA (rRNA) nucleic acids and uses thereof” (Cylene Pharmaceuticals, Inc., priority 2005, published 2007).

One test concerns the target Blk(m) (Mus musculus, UniProt P16277). Briefly: Protein kinase inhibition assay. The format is biochemical. The note with it: read-out: percent residual activity of Blk(m). As for the experimental part:
(§1) Certain compounds were tested for activity in protein kinase inhibition assays. All substrates were dissolved and diluted to working stocks in de-ionized water, apart from histone H1 (10× working stock in 20 mM MOPS pH 7.0), PDKtide (10× working stock in 50 mM Tris pH 7.0) ATF2 (which is typically stored at a 20× working stock in 50 mM Tris pH 7.5, 150 mM NaCl, 0.1 mM EGTA, 0.03% Brij-35, 50% glycerol, 1 mM benzamidine, 0.2 mM PMSF and 0.1% R-mercaptoethanol), KKLNRTLSFAEPG (SEQ ID NO:203) and RRRLSFAEPG (SEQ ID NO:204) (50 mM HEPES pH 7.4) and GGEEEEYFELVKKKK (SEQ ID NO:205) (20 mM MOPS pH 7.0). All kinases were pre-diluted to a 10× working concentration prior to addition into the assay. The composition of the dilution buffer for each kinase is detailed below.
In a final reaction volume of 25 μl, Blk (m) (5-10 mU) is incubated with 50 mM Tris pH 7.5, 0.1 mM EGTA, 0.1 mM Na3VO4, 0.1% R-mercaptoethanol, 0.1 mg/ml poly(Glu, Tyr) 4:1, 10 mM MgAcetate and [gamma-33P-ATP] (specific activity approx. 500 cpm/pmol, concentration as required). The reaction is initiated by the addition of the MgATP mix. After incubation for 40 minutes at room temperature, the reaction is stopped by the addition of 5 μl of a 3% phosphoric acid solution. […]

The target in a further test is CaMKIV(h) (Homo sapiens, UniProt Q16566). The test can be described thus: Protein kinase inhibition assay. The format is biochemical. To be noted: read-out: percent residual activity of CaMKIV(h). As for the experimental part: as §1
In a final reaction volume of 25 μl, CaMKIV (h) (5-10 mU) is incubated with 40 mM HEPES pH 7.4, 5 mM CaCl2, 30 μg/ml calmodulin, 30 μM KKLNRTLSVA (SEQ ID NO:212), 10 mM MgAcetate and [gamma-33P-ATP] (specific activity approx. 500 cpm/pmol, concentration as required). The reaction is initiated by the addition of the MgATP mix. After incubation for 40 minutes at room temperature, the reaction is stopped by the addition of 5 μl of a 3% phosphoric acid solution. […]

For the next test, the target named is PAK2(h) (Homo sapiens, UniProt Q13177). Briefly: Protein kinase inhibition assay. To be noted: read-out: percent residual activity of PAK2(h). The format is biochemical. On the procedure: as §1
Chain of PAK2(h) (Q13177 whole entry): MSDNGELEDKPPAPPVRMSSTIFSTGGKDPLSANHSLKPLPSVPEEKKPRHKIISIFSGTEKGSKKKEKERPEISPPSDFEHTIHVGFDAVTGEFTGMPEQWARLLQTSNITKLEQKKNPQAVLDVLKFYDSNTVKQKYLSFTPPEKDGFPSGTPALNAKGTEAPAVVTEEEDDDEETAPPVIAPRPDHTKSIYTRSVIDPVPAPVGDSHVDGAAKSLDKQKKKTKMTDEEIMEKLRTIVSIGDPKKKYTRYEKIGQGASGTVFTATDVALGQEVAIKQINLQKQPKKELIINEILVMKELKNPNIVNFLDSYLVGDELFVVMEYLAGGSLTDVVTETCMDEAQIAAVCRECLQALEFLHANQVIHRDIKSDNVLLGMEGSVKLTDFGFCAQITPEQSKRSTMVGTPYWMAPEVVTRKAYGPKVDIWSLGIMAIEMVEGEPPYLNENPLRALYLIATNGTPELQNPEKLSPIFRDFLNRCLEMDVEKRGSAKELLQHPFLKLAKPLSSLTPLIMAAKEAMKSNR
In a final reaction volume of 25 μl, PAK2 (h) (5-10 mU) is incubated with 8 mM MOPS pH 7.0, 0.2 mM EDTA, 30 μM […] (SEQ ID NO:222), 10 mM MgAcetate and [gamma-33P-ATP] (specific activity approx. 500 cpm/pmol, concentration as required). The reaction is initiated by the addition of the MgATP mix. After incubation for 40 minutes at room temperature, the reaction is stopped by the addition of 5 μl of a 3% phosphoric acid solution. 10 μl of the reaction is then spotted onto a P30 filtermat and washed three times for 5 minutes in 75 mM phosphoric acid and once in methanol prior to drying and scintillation counting.

Another test deals with PDK1(h) (Homo sapiens, UniProt O15530). Briefly: Protein kinase inhibition assay. The format is biochemical. The note with it: read-out: percent residual activity of PDK1(h). As for the experimental part:
as §1
In a final reaction volume of 25 μl, PDK1 (h) (5-10 mU) is incubated with 50 mM Tris pH 7.5, 100 μM […] (SEQ ID NO:217) (PDKtide), 0.1% R-mercaptoethanol, 10 mM MgAcetate and [gamma-33P-ATP] (specific activity approx. 500 cpm/pmol, concentration as required). The reaction is initiated by the addition of the MgATP mix. After incubation for 40 minutes at room temperature, the reaction is stopped by the addition of 5 μl of a 3% phosphoric acid solution. […]

A further test deals with SAPK2a(h) (Homo sapiens, UniProt Q16539). Briefly: Protein kinase inhibition assay. The format is biochemical. The note with it: read-out: percent residual activity of SAPK2a(h). On the procedure: as §1
Chain of SAPK2a(h) (Q16539 whole entry): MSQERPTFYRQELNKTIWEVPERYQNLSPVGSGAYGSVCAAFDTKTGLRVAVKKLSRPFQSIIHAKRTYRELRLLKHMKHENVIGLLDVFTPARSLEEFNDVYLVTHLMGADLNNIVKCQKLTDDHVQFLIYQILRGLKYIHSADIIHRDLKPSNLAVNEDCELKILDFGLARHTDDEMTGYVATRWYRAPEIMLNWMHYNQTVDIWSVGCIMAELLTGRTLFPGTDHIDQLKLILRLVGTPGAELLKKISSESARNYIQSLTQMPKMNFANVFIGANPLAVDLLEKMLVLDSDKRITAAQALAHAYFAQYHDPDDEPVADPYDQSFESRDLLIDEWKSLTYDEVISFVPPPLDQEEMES
In a final reaction volume of 25 μl, SAPK2a (h) (5-10 mU) is incubated with 25 mM Tris pH 7.5, 0.02 mM EGTA, 0.33 mg/ml myelin basic protein, 10 mM MgAcetate and [gamma-33P-ATP] (specific activity approx. 500 cpm/pmol, concentration as required). The reaction is initiated by the addition of the MgATP mix. After incubation for 40 minutes at room temperature, the reaction is stopped by the addition of 5 μl of a 3% phosphoric acid solution. 10 μl of the reaction is then spotted onto a P30 filtermat and washed three times for 5 minutes in 75 mM phosphoric acid and once in methanol prior to drying and scintillation counting.

In the next test the target is T1, nucleolin/cMyc QP DNA (Homo sapiens, UniProt P19338).
T1 construct: without the N-terminal acidic stretches domain
T1 sequence (P19338 284-710 limits assumed): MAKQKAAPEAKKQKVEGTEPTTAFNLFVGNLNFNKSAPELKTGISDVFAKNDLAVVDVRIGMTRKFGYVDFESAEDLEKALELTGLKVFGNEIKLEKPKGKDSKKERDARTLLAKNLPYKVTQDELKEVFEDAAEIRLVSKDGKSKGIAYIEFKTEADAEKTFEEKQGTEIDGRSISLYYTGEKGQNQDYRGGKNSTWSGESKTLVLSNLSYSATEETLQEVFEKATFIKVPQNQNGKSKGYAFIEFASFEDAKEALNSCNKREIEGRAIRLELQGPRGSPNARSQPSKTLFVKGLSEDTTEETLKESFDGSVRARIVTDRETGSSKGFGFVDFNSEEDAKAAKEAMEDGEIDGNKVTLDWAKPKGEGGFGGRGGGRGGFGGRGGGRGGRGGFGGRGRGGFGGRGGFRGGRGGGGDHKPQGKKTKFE
The test can be described thus: EMSA, nucleolin/QP ligand interaction. The format is binding. To be noted: nucleolin ~250 nM, 32P-labeled ligand 10 or 250 nM, 30 minutes (FIG. 1, FIG. 2). As for the experimental part: The following assays assessed effects of compounds on interactions between nucleolin and nucleic acid ligands capable of forming quadruplex (QP) and hairpin (HP) secondary structures. Nucleic acid ligands tested were a cMyc QP DNA having nucleotide sequence 5′-[…]-3′ (SEQ ID NO: 176) and a HP pre-rRNA region to which nucleolin binds, having the sequence 5′-[…]-3′ (SEQ ID NO: 177). In the assays, recombinant nucleolin (˜250 nM), which was fused to maltose binding protein and had the sequence under accession number NM_005381 without the N-terminal acidic stretches domain, was incubated with each of the two ^32P-labeled nucleic acid ligands (10 or 250 nM). Nucleolin and the nucleic acid ligand were incubated in the presence or absence of a test compound of Formula A-1, B-1, C-6 or C-7 in an incubation buffer (12.5 mM Tris, pH 7.6, 60 mM KCl, 1 mM MgCl2, 0.1 mM EDTA, 1 mM DTT, 5% glycerol, 0.1 mg/ml BSA) for 30 minutes at room temperature. Structures for A-1 and B-1 are shown above and structures for C-6 and C-7 are shown hereafter: [drawing 17] The resulting complexes were separated on a 6% DNA retardation gel using 0.5× TBE with 20 mM KCl as a running buffer (i.e., electrophoresis mobility shift assay (EMSA)).
(A gel shift assay detects complexes by their altered migration in electrophoresis.)

Chain of Blk(m) (P16277 whole entry): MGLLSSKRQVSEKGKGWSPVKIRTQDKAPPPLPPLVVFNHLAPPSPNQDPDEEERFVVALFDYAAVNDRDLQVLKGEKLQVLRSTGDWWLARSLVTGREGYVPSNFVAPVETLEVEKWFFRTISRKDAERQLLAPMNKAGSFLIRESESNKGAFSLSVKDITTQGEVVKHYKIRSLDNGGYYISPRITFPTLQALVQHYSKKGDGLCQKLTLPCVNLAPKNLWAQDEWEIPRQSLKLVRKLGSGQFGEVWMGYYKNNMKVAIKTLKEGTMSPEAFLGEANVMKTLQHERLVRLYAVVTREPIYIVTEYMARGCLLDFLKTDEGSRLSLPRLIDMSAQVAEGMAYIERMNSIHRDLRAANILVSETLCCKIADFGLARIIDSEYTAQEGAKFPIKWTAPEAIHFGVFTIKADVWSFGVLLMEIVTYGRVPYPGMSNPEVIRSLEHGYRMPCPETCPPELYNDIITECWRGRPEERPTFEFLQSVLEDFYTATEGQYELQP
Chain of PDK1(h) (O15530 whole entry): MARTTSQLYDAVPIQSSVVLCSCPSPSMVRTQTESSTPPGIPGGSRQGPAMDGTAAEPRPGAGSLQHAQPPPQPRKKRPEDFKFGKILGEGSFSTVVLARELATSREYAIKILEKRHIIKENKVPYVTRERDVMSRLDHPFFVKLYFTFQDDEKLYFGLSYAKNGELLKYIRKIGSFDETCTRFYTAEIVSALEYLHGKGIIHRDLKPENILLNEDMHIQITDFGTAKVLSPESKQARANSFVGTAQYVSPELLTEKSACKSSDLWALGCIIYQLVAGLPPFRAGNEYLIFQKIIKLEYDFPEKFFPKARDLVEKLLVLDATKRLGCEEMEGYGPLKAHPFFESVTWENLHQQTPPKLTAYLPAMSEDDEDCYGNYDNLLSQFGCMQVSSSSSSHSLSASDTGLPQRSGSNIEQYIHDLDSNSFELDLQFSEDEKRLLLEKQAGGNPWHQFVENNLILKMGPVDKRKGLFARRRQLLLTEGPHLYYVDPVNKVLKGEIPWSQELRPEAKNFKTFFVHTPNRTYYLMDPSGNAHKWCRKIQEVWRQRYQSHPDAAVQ

Consider `CN1CCCC1CCNC(=O)c1cn2c3c(c(N4CCC(c5cnccn5)C4)c(F)cc3c1=O)Oc1cc3ccccc3cc1-2` (stereo not drawn) [Compound A-1], for which the remaining activity at 2.5 µM was 117% at Blk(m); 124% on CaMKIV(h); 73% on PAK2(h); 121% at PDK1(h); 97% on SAPK2a(h). In addition, the “interference with the nucleolin/QP ligand interaction” value at nucleolin/cMyc QP DNA is recorded as “interfered with the nucleolin/QP ligand interaction in a concentration dependent manner”.
Consider `CC(=O)N1CCN(c2ccc3c(=O)c(C(=O)NCCN4CCCC4)c4n(C)c5ccccc5n4c3n2)CC1` [Compound B-1], for which the remaining activity at 2.5 µM turned out to be 106% at Blk(m); 122% on CaMKIV(h); 95% on PAK2(h); 109% on PDK1(h); 103% at SAPK2a(h). Further, the “interference with the nucleolin/QP ligand interaction” value on nucleolin/cMyc QP DNA is reported as “interfered with the nucleolin/QP ligand interaction in a concentration dependent manner”.
